Measurements: article PMC10817945, “Design of a novel analogue peptide with potent antibiofilm activities against Staphylococcus aureus based upon a sapecin B-derived peptide” (Scientific Reports, 2024)
In brackets after ≈: the same amount, converted by molar mass. Where two headings read alike, the source gives them in different places. Non-standard residues stand in square brackets, D forms with d. Residues, ends and D or L forms follow the SMILES beside them.

Legend:
[1] = 50% human serum, 37 °C, 2 h, reverse-phase HPLC
Method: To assess the serum stability of mKLK peptide to proteolytic degradation, the D-form mKLK peptide (0.5 mg) was dissolved in 4 ml of 50% (v/v) of serum from male healthy donors in PBS and incubated at 37 °C for 0, 60, and 120 min. After each incubation time, the samples were analyzed by reverse-phase HPLC on a Jupiter proteo C18 column (250 × 4.6 mm) and monitored with a fluorescence detector (wavelength: 560 nm). Analysis of the samples was performed over a linear gradient of 10–60% acetonitrile containing 0.08% trifluoroacetic acid for 50 min at a flow rate of 1 ml/min[48].

[2] = tested on: S. aureus ATCC 25923; format: cell-based, Staphylococcus aureus; details: ATCC 25923, 2 h
Method: To test the retinue of antimicrobial activity of mKLK in human serum, MIC of the serum-treated peptide was determined against S. aureus ATCC 25923 using microdilution broth assay. […] The MIC was determined as the lowest concentration of peptide at which no visible growth is seen[49].

[3] = tested on: S. aureus strains; format: cell-based, Staphylococcus aureus; details: for inhibition of biofilm formation: strains, 24 h
Method: To investigate the inhibitory effect of KLK and mKLK peptides on bacterial surface attachment and biofilm formation, the bacterial suspension in TSB with a concentration of 10^7 CFU/ml was prepared from overnight culture. An aliquot of 100 μl of the bacterial suspension was added to wells of 96-well plates containing 100 μl of the peptides solution with concentrations of 1×, 1/2× and 1/4× MIC, resulting in the final peptides concentrations of 1/2×, 1/4× and 1/8× MIC. To investigate the inhibitory effect of the peptides on surface attachment the incubation was performed at 37 °C for 2 h and to evaluate their inhibitory activity on biofilm formation the incubation was performed at 37 °C for 24 h. The wells containing only TSB medium were used as negative controls. After incubation, the contents of the wells were removed and washed three times with PBS and the wells were stained with 200 μl of 0.1% crystal violet for 20 min. The plates were washed again and excess dye was removed. A volume of 200 μl of 95% ethanol was added to each well for 20 min and absorbance was measured at 570 nm by a microplate reader.

[4] = tested on: 24-h S. aureus biofilms; experiment: Biofilm dispersal activity (crystal violet); format: cell-based, Staphylococcus aureus
Method: To investigate the dispersal activity of KLK and mKLK peptide, the 24-h S. aureus biofilms were prepared in TSB medium in the 96-well plates. Then, the final concentrations of 1×, 2×, and 4 × MIC were prepared for each peptide in the wells. After incubation at 37 °C for 12 h, plates were washed with PBS three times to discard unattached bacteria. Subsequently, plates were stained with 250 μl of 0.5% crystal violet for 20 min at room temperature. Then, the wells were washed and 250 μl 33% acetic acid was added to them. Finally, the absorbance was measured at 570 nm using a microplate reader.

For `CC(C)C[C@@H](NC(=O)[C@H](N)Cc1c[nH]c2ccccc12)C(=O)N[C@H](Cc1c[nH]c2ccccc12)C(=O)N[C@H](C)C(=O)N[C@H](CC(C)C)C(=O)N[C@H](CC(C)C)C(=O)N[C@H](CCCCN)C(=O)N[C@H](CC(C)C)C(=O)N[C@H](CC(C)C)C(=O)N[C@H](CCCCN)C(=O)N[C@H](CC(C)C)C(=O)N[C@H](CCCCN)C(N)=O` [mKLK] (H-[dW][dL][dW][dA][dL][dL][dK][dL][dL][dK][dL][dK]-NH2; N-terminus assumed), which “percentage of the peptide remaining” value [1] is on record?
The value was 79%.

And the “MIC after serum treatment” value [2]?
The value was 4 mg/L (≈ 2.62 µM).

What about the “crystal violet absorbance at 570 nm, biofilm formation, Mean±SD” value ([3]; ATCC25923, 1/2MIC, control 2.302±0.006) of the same compound?
The value was 0.207±0.02.

And the “crystal violet absorbance at 570 nm, biofilm formation, Mean±SD” value ([3]; ATCC25923, 1/4MIC, control 2.302±0.006)?
The value was 0.257±0.05.

What about the “crystal violet absorbance at 570 nm, biofilm formation, Mean±SD” value ([3]; ATCC25923, 1/8MIC, control 2.302±0.006) of the same compound?
The value was 0.678±0.01.

What about the “crystal violet absorbance at 570 nm, biofilm formation, Mean±SD” value ([3]; MRSA-1, 1/2MIC, control 2.115±0.01) of the same compound?
The value was 0.489±0.007.

And the “crystal violet absorbance at 570 nm, biofilm formation, Mean±SD” value ([3]; MRSA-1, 1/4MIC, control 2.115±0.01)?
Its value is 0.572±0.01.

What about the “crystal violet absorbance at 570 nm, biofilm formation, Mean±SD” value ([3]; MRSA-1, 1/8MIC, control 2.115±0.01) of the same compound?
Its value is 0.936±0.07.

What about the “crystal violet absorbance at 570 nm, biofilm formation, Mean±SD” value ([3]; MRSA-2, 1/2MIC, control 2.354±0.04) of the same compound?
Its value is 0.444±0.008.

What about the “crystal violet absorbance at 570 nm, biofilm formation, Mean±SD” value ([3]; MRSA-2, 1/4MIC, control 2.354±0.04) of the same compound?
The value was 0.624±0.03.

And the “crystal violet absorbance at 570 nm, biofilm formation, Mean±SD” value ([3]; MRSA-2, 1/8MIC, control 2.354±0.04)?
The value was 0.923±0.07.

And the “crystal violet absorbance at 570 nm, biofilm formation, Mean±SD” value ([3]; MRSA-3, 1/2MIC, control 1.541±0.02)?
The value was 1.405±0.01.

What about the “crystal violet absorbance at 570 nm, biofilm formation, Mean±SD” value ([3]; MRSA-3, 1/4MIC, control 1.541±0.02) of the same compound?
Its value is 0.322±0.02.

What about the “crystal violet absorbance at 570 nm, biofilm formation, Mean±SD” value ([3]; MRSA-3, 1/8MIC, control 1.541±0.02) of the same compound?
The value was 0.519±0.006.

And the “crystal violet absorbance at 570 nm, biofilm formation, Mean±SD” value ([3]; MSSA-1, 1/2MIC, control 2.190±0.01)?
Its value is 0.236±0.03.

What about the “crystal violet absorbance at 570 nm, biofilm formation, Mean±SD” value ([3]; MSSA-1, 1/4MIC, control 2.190±0.01) of the same compound?
Its value is 0.407±0.007.

And the “crystal violet absorbance at 570 nm, biofilm formation, Mean±SD” value ([3]; MSSA-1, 1/8MIC, control 2.190±0.01)?
The value was 0.622±0.02.

What about the “crystal violet absorbance at 570 nm, biofilm formation, Mean±SD” value ([3]; MSSA-2, 1/2MIC, control 1.802±0.02) of the same compound?
Its value is 0.183±0.01.

What about the “crystal violet absorbance at 570 nm, biofilm formation, Mean±SD” value ([3]; MSSA-2, 1/4MIC, control 1.802±0.02) of the same compound?
Its value is 0.225±0.01.

What about the “crystal violet absorbance at 570 nm, biofilm formation, Mean±SD” value ([3]; MSSA-2, 1/8MIC, control 1.802±0.02) of the same compound?
Its value is 0.558±0.05.

What about the “inhibition of biofilm formation” value [3]; 2 of the same compound?
The value was 80-91%.

And the “inhibition of biofilm formation” value [3]; 4?
The value was 76-89%.

And the “inhibition of biofilm formation” value [3]; 8?
Its value is 63-73%.

And the “crystal violet absorbance at 570 nm, dispersal activity, Mean±SD” value ([4]; ATCC25923, 1MIC, control 2.79±0.03)?
Its value is 1.277±0.01.

And the “crystal violet absorbance at 570 nm, dispersal activity, Mean±SD” value ([4]; ATCC25923, 2MIC, control 2.79±0.03)?
Its value is 0.790±0.15.

What about the “crystal violet absorbance at 570 nm, dispersal activity, Mean±SD” value ([4]; ATCC25923, 4MIC, control 2.79±0.03) of the same compound?
The value was 0.35±0.01.

And the “crystal violet absorbance at 570 nm, dispersal activity, Mean±SD” value ([4]; MRSA-1, 1MIC, control 1.903±0.003)?
The value was 1.271±0.02.

What about the “crystal violet absorbance at 570 nm, dispersal activity, Mean±SD” value ([4]; MRSA-1, 2MIC, control 1.903±0.003) of the same compound?
The value was 0.926±0.07.

And the “crystal violet absorbance at 570 nm, dispersal activity, Mean±SD” value ([4]; MRSA-1, 4MIC, control 1.903±0.003)?
Its value is 0.587±0.28.

And the “crystal violet absorbance at 570 nm, dispersal activity, Mean±SD” value ([4]; MRSA-2, 1MIC, control 2.014±0.01)?
Its value is 1.349±0.04.

And the “crystal violet absorbance at 570 nm, dispersal activity, Mean±SD” value ([4]; MRSA-2, 2MIC, control 2.014±0.01)?
The value was 0.929±0.09.

And the “crystal violet absorbance at 570 nm, dispersal activity, Mean±SD” value ([4]; MRSA-2, 4MIC, control 2.014±0.01)?
Its value is 0.579±0.08.

And the “crystal violet absorbance at 570 nm, dispersal activity, Mean±SD” value ([4]; MRSA-3, 1MIC, control 1.255±0.29)?
The value was 0.637±0.16.

What about the “crystal violet absorbance at 570 nm, dispersal activity, Mean±SD” value ([4]; MRSA-3, 2MIC, control 1.255±0.29) of the same compound?
The value was 0.5±0.11.

What about the “crystal violet absorbance at 570 nm, dispersal activity, Mean±SD” value ([4]; MRSA-3, 4MIC, control 1.255±0.29) of the same compound?
The value was 0.296±0.009.

And the “crystal violet absorbance at 570 nm, dispersal activity, Mean±SD” value ([4]; MSSA-1, 1MIC, control 1.787±0.1)?
The value was 1.063±0.09.

What about the “crystal violet absorbance at 570 nm, dispersal activity, Mean±SD” value ([4]; MSSA-1, 2MIC, control 1.787±0.1) of the same compound?
The value was 0.675±0.02.

What about the “crystal violet absorbance at 570 nm, dispersal activity, Mean±SD” value ([4]; MSSA-1, 4MIC, control 1.787±0.1) of the same compound?
The value was 0.378±0.02.

And the “crystal violet absorbance at 570 nm, dispersal activity, Mean±SD” value ([4]; MSSA-2, 1MIC, control 2.116±0.006)?
Its value is 0.992±0.01.

What about the “crystal violet absorbance at 570 nm, dispersal activity, Mean±SD” value ([4]; MSSA-2, 2MIC, control 2.116±0.006) of the same compound?
The value was 0.637±0.20.

What about the “crystal violet absorbance at 570 nm, dispersal activity, Mean±SD” value ([4]; MSSA-2, 4MIC, control 2.116±0.006) of the same compound?
Its value is 0.207±0.01.
